Data from the NIST ThermoML archive (doi:10.1021/je050034s).

Experiments:
[1] = Molar enthalpy of transition or fusion; settings: Crystal
[2] = molar heat capacity at saturation pressure

c1ccc(Cc2ccccc2)cc1 [diphenylmethane]
Settings	mass density [kg/m3]	vapor or sublimation pressure [kPa]
308.14 K, Liquid, Vibrating tube method	996.7	–
323.14 K, Liquid, Vibrating tube method	985.3	–
329.99 K, Liquid, Inclined piston gauge	–	0.0261
339.99 K, Liquid, Inclined piston gauge	–	0.0523
348.13 K, Liquid, Vibrating tube method	965.6	–
349.98 K, Liquid, Inclined piston gauge	–	0.0995
359.97 K, Liquid, Inclined piston gauge	–	0.1814
369.98 K, Liquid, Inclined piston gauge	–	0.3181
373.12 K, Liquid, Vibrating tube method	945.8	–
379.98 K, Liquid, Inclined piston gauge	–	0.5378
389.97 K, Liquid, Inclined piston gauge	–	0.8793
398.12 K, Liquid, Vibrating tube method	926.1	–
399.97 K, Liquid, Inclined piston gauge	–	1.395
408.21 K, Liquid, Twin ebulliometer	–	2
409.97 K, Liquid, Inclined piston gauge	–	2.155
414.97 K, Liquid, Inclined piston gauge	–	2.651
415.11 K, Liquid, Twin ebulliometer	–	2.666
419.97 K, Liquid, Inclined piston gauge	–	3.243
423.12 K, Liquid, Vibrating tube method	905.7	–
425.34 K, Liquid, Twin ebulliometer	–	4
432.99 K, Liquid, Twin ebulliometer	–	5.333
444.38 K, Liquid, Twin ebulliometer	–	7.999
448.11 K, Liquid, Vibrating tube method	885.4	–
452.93 K, Liquid, Twin ebulliometer	–	10.67
459.84 K, Liquid, Twin ebulliometer	–	13.33
467.03 K, Liquid, Twin ebulliometer	–	16.66
473 K, Liquid, Twin ebulliometer	–	19.93
473.11 K, Liquid, Vibrating tube method	864.3	–
480.86 K, Liquid, Twin ebulliometer	–	25.02
488.78 K, Liquid, Twin ebulliometer	–	31.17
496.76 K, Liquid, Twin ebulliometer	–	38.56
498.11 K, Liquid, Vibrating tube method	842.6	–
504.79 K, Liquid, Twin ebulliometer	–	47.37
512.88 K, Liquid, Twin ebulliometer	–	57.81
521.02 K, Liquid, Twin ebulliometer	–	70.11
523.11 K, Liquid, Vibrating tube method	819.2	–
529.22 K, Liquid, Twin ebulliometer	–	84.53
537.47 K, Liquid, Twin ebulliometer	–	101.31
545.78 K, Liquid, Twin ebulliometer	–	120.78
554.14 K, Liquid, Twin ebulliometer	–	143.23
562.56 K, Liquid, Twin ebulliometer	–	169
571.03 K, Liquid, Twin ebulliometer	–	198.46
579.55 K, Liquid, Twin ebulliometer	–	231.99
588.13 K, Liquid, Twin ebulliometer	–	269.98
743.8 K, Gas, DSC	104.3	–
754.8 K, Gas, DSC	148.4	–
760.6 K, Liquid, DSC	417.7	–
767.1 K, Liquid, DSC	417.5	–
769.8 K, Liquid, DSC	397.2	–
770 K, Gas, DSC	191.2	–
775.7 K, Gas, DSC	220.3	–
776.5 K, Liquid, DSC	333.5	–
777 K, Liquid, DSC	304.2	–

Settings	Molar enthalpy of transition or fusion [kJ/mol]	Triple point temperature [K]
Crystal	–	298.37
[1]	19.01	–

Settings	Critical temperature [K]
Liquid, DTA	778

molar heat capacity [J/K/mol], [2]
Settings	Crystal	Liquid
5 K, Vacuum adiabatic calorimetry	0.38	–
5.364 K, Vacuum adiabatic calorimetry	0.47	–
6.296 K, Vacuum adiabatic calorimetry	0.76	–
7.218 K, Vacuum adiabatic calorimetry	1.16	–
8.187 K, Vacuum adiabatic calorimetry	1.71	–
9.195 K, Vacuum adiabatic calorimetry	2.42	–
10 K, Vacuum adiabatic calorimetry	3.12	–
10.21 K, Vacuum adiabatic calorimetry	3.31	–
11.33 K, Vacuum adiabatic calorimetry	4.39	–
12.6 K, Vacuum adiabatic calorimetry	5.74	–
13.99 K, Vacuum adiabatic calorimetry	7.45	–
15.53 K, Vacuum adiabatic calorimetry	9.437	–
17.24 K, Vacuum adiabatic calorimetry	11.84	–
19.13 K, Vacuum adiabatic calorimetry	14.59	–
20 K, Vacuum adiabatic calorimetry	15.87	–
21.21 K, Vacuum adiabatic calorimetry	17.66	–
23.51 K, Vacuum adiabatic calorimetry	21.15	–
26.07 K, Vacuum adiabatic calorimetry	24.97	–
28.93 K, Vacuum adiabatic calorimetry	29.09	–
30 K, Vacuum adiabatic calorimetry	30.59	–
32.11 K, Vacuum adiabatic calorimetry	33.47	–
35.66 K, Vacuum adiabatic calorimetry	37.99	–
39.62 K, Vacuum adiabatic calorimetry	42.58	–
40 K, Vacuum adiabatic calorimetry	43	–
44.02 K, Vacuum adiabatic calorimetry	47.26	–
48.94 K, Vacuum adiabatic calorimetry	51.94	–
50 K, Vacuum adiabatic calorimetry	52.92	–
50.87 K, Vacuum adiabatic calorimetry	53.74	–
52.95 K, Vacuum adiabatic calorimetry	55.44	–
54.43 K, Vacuum adiabatic calorimetry	56.74	–
55.01 K, Vacuum adiabatic calorimetry	57.11	–
57.89 K, Vacuum adiabatic calorimetry	59.58	–
59.91 K, Vacuum adiabatic calorimetry	61.04	–
60 K, Vacuum adiabatic calorimetry	61.11	–
63.59 K, Vacuum adiabatic calorimetry	63.66	–
65.43 K, Vacuum adiabatic calorimetry	65.06	–
69.82 K, Vacuum adiabatic calorimetry	68.05	–
70 K, Vacuum adiabatic calorimetry	68.16	–
76.62 K, Vacuum adiabatic calorimetry	72.36	–
78.19 K, Vacuum adiabatic calorimetry	73.39	–
80 K, Vacuum adiabatic calorimetry	74.47	–
81.13 K, Vacuum adiabatic calorimetry	75.18	–
84.19 K, Vacuum adiabatic calorimetry	76.96	–
85.52 K, Vacuum adiabatic calorimetry	77.76	–
88.47 K, Vacuum adiabatic calorimetry	79.51	–
90 K, Vacuum adiabatic calorimetry	80.38	–
96.79 K, Vacuum adiabatic calorimetry	84.28	–
100 K, Vacuum adiabatic calorimetry	86.12	–
105.91 K, Vacuum adiabatic calorimetry	89.5	–
115.55 K, Vacuum adiabatic calorimetry	94.96	–
120 K, Vacuum adiabatic calorimetry	97.5	–
125.31 K, Vacuum adiabatic calorimetry	100.54	–
135.12 K, Vacuum adiabatic calorimetry	106.25	–
140 K, Vacuum adiabatic calorimetry	109.13	–
145.06 K, Vacuum adiabatic calorimetry	112.15	–
155.05 K, Vacuum adiabatic calorimetry	118.34	–
160 K, Vacuum adiabatic calorimetry	121.47	–
165.03 K, Vacuum adiabatic calorimetry	124.68	–
175.01 K, Vacuum adiabatic calorimetry	131.04	–
180 K, Vacuum adiabatic calorimetry	134.55	–
185 K, Vacuum adiabatic calorimetry	138.14	–
195.05 K, Vacuum adiabatic calorimetry	145.11	–
200 K, Vacuum adiabatic calorimetry	148.68	–
205.14 K, Vacuum adiabatic calorimetry	152.48	–
215.25 K, Vacuum adiabatic calorimetry	160.17	–
220 K, Vacuum adiabatic calorimetry	163.86	–
225.34 K, Vacuum adiabatic calorimetry	168.15	–
235.38 K, Vacuum adiabatic calorimetry	176.42	–
240 K, Vacuum adiabatic calorimetry	180.3	–
245.37 K, Vacuum adiabatic calorimetry	185.01	–
246.51 K, Vacuum adiabatic calorimetry	185.99	–
255.32 K, Vacuum adiabatic calorimetry	193.89	–
257.33 K, Vacuum adiabatic calorimetry	195.76	–
260 K, Vacuum adiabatic calorimetry	198.12	–
268.6 K, Vacuum adiabatic calorimetry	206.43	–
279.29 K, Vacuum adiabatic calorimetry	217.16	–
280 K, Vacuum adiabatic calorimetry	217.44	–
289.28 K, Vacuum adiabatic calorimetry	229.55	–
289.37 K, Vacuum adiabatic calorimetry	229.9	–
298.15 K, Vacuum adiabatic calorimetry	236.26	267.36
298.37 K, Vacuum adiabatic calorimetry	236.5	267.48
300 K, Vacuum adiabatic calorimetry	–	268.32
303.38 K, Vacuum adiabatic calorimetry	–	270.07
305.34 K, Vacuum adiabatic calorimetry	–	270.99
305.59 K, Vacuum adiabatic calorimetry	–	271.14
313.82 K, Vacuum adiabatic calorimetry	–	275.26
320 K, Vacuum adiabatic calorimetry	–	278.43
325.59 K, Vacuum adiabatic calorimetry	–	281.23
339.57 K, Vacuum adiabatic calorimetry	–	288.4
340 K, Vacuum adiabatic calorimetry	–	288.62
356.66 K, Vacuum adiabatic calorimetry	–	297.31
360 K, Vacuum adiabatic calorimetry	–	299.1
373.63 K, Vacuum adiabatic calorimetry	–	306.34
380 K, Vacuum adiabatic calorimetry	–	309.56
390.49 K, Vacuum adiabatic calorimetry	–	314.87
400 K, Vacuum adiabatic calorimetry	–	319.92
407.29 K, Vacuum adiabatic calorimetry	–	323.8
420 K, Vacuum adiabatic calorimetry	–	330.39
424.08 K, Vacuum adiabatic calorimetry	–	332.47
438.41 K, Vacuum adiabatic calorimetry	–	339.81
440 K, Vacuum adiabatic calorimetry	–	340.5
460 K, Vacuum adiabatic calorimetry	–	349.5
480 K, Small sample (50 mg) DSC	–	358.67
500 K, Small sample (50 mg) DSC	–	367.6
520 K, Small sample (50 mg) DSC	–	376.3
540 K, Small sample (50 mg) DSC	–	384.6
560 K, Small sample (50 mg) DSC	–	392.7
580 K, Small sample (50 mg) DSC	–	400.5
600 K, Small sample (50 mg) DSC	–	407.9
620 K, Small sample (50 mg) DSC	–	415.1
640 K, Small sample (50 mg) DSC	–	422.3
660 K, Small sample (50 mg) DSC	–	429.6
680 K, Small sample (50 mg) DSC	–	437.4
700 K, Small sample (50 mg) DSC	–	446.9
